# Data as given in publication PMC5642495, “Characterization of a novel androgen receptor (AR) coregulator RIPK1 and related chemicals that suppress AR-mediated prostate cancer growth via peptide and chemical screening” (Oncotarget, 2017).
# Tests used:
# AR = system: AR; set-up: method as in PMID 24742982; conditions: cited from earlier work
# AR transactivation = test: AR transcriptional reporter assay in PC-3 cells; format: cell-based, human; conditions: 10 nM DHT, 1 µM
# Procedure: Figure 1 Associations between RIPK1 and AR (A) Co-IP of Flag-RIPK1 with Flag-AR in the 293T cell line. Extracts of 293T cells overexpressing 3xFlag-RIPK1 and 3xFlag-AR were treated with […]. IP was performed using anti-AR (C19) or anti-RIPK1 antibody or normal rabbit serum (negative control), followed by immunoblotting (IB) with antibodies against AR or RIPK1. (B) RIPK1 interacts with full-length AR and the N- and C-terminal regions of AR in GST pull-down assays. Mutation of the FxxFY motif to AxxAA in RIPK1 reduced interactions with AR. […] (C) Transfection of PC-3 prostate cancer cells with AR and RIPK1. PC-3 cells in 24-well plates were co-transfected with 300 ng MMTV-LUC reporter plasmid and 0.5 ng SV40-Renilla luciferase plasmid, together with 100 ng pCMV-Flag-AR and 100, 300 or 500 ng p3xFLAG- RIPK1. The total plasmid DNA content was made up to 1 µg with pCMV. After 16 h, ethanol or 10 nM DHT was added and cells incubated for an additional 16 h. DHT was used as the AR ligand while ARA70N served as the positive control. Relative LUC activity was determined using the dual luciferase system. (D) RIPK1 functional domain mapping in relation to AR transactivation. PC-3 cells were transfected with pCMV-Flag-AR and RIPK1 expression plasmid, P3xFlag-RIPK1 full-length, P3xFlag-RIPK1-(240-671) or P3xflag-RIPK1-(1-558) plasmid, and cultured overnight. Ethanol or 10 nM DHT was added and cells incubated for an additional 16 h. Relative LUC activity was determined using the dual luciferase system. (E) RIPK1 is expressed in benign prostatic hyperplasia tissue, displaying strong positivity (3+, > 90%) in the gland area but weak (1+, 50%) staining in the background. (F) Human prostate cancer tissues were immunostained for RIPK1. “T” indicates the tumor area (right side) and “Non-T” the non-tumor area (left side). RIPK1 expression was weak (1+, 80%) in the cancer area but remained strong (3+, 70%) in the peri-cancer area. The figures are representative of three benign prostatic gland hyperplasia and cancer tissues.
# The PC-3 prostate cancer cell line was used for experiments. […]
# [1] = target: W741L-AR (bicalutamide-associated mutant androgen receptor, mammalian two-hybrid) (human); test: two-hybrid; mammalian two-hybrid (MM2H) in PC-3 cells; Gal-4 peptide fusion with AR; CDX (bicalutamide) 10 µM; values relative to Gal-4 alone
# Sequence of W741L-AR (bicalutamide-associated mutant androgen receptor, mammalian two-hybrid) (human) (P10275 whole entry, stated change not applied, the tested form may be a part): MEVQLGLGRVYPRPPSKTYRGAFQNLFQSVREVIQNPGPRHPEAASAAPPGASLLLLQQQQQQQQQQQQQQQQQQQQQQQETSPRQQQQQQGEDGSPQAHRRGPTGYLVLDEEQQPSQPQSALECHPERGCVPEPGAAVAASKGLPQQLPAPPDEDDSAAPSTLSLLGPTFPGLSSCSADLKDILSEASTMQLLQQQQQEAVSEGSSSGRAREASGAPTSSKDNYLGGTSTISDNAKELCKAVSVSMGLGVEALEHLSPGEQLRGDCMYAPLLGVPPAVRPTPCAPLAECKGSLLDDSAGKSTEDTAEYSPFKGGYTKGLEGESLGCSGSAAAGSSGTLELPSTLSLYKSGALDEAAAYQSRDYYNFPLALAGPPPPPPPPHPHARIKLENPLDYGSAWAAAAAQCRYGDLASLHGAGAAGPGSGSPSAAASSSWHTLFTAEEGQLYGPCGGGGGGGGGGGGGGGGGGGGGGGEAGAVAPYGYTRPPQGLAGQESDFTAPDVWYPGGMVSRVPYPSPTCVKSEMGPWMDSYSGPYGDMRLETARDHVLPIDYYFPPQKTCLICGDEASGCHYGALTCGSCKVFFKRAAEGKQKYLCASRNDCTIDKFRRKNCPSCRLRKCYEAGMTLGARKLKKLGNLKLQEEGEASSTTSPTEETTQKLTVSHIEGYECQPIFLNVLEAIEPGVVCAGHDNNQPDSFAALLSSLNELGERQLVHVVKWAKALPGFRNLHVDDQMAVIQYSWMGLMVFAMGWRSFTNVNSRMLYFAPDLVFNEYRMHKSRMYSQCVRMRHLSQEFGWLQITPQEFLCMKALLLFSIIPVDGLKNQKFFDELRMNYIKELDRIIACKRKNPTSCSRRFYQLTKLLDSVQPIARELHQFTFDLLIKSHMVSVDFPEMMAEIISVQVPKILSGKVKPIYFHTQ
Molecule,relative reporter activity in the mammalian two-hybrid assay (Gal-4 alone = 1) [1],further results
Nc1cc(N2CCCCC2)nc(N)[n+]1[O-] [Minoxidil],–,suppression of AR related function (AR): suppress AR related function
"CNC(=O)c1ccc(N2C(=S)N(c3ccc(C#N)c(C(F)(F)F)c3)C(=O)C2(C)C)cc1F [enzalutamide, reference compound]",–,suppression of AR transactivation (AR transactivation): suppressed AR transactivation
"NTNAFSRLFYPS [#3-18 peptide (No. 12, positive control; GAL4-DBD-3-18)]",128,–
"GIEEKFRPFYLSQLE [RIP-p, short FxxFY-containing peptide of RIPK1 (No. 13)]",554,–
